Test results published in ChEMBL document CHEMBL1201862, “PubChem BioAssay data set” (2004).
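Compound exposure: 48 hours, 5 concentrations, 96-well plates. Here, GI50 denotes the concentration required for 50% inhibition of growth.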 Calls of active or inactive are those of the source. Rule as the data show it: active = GI50 up to about 1.1 µM and inactive = higher.

What was measured:
Experiment in all cases: NCI-60 cell line screen, 48 h
BT-549 = test system: BT-549
LOX IMVI = test system: LOX IMVI
UO-31 = test system: UO-31
SNB-19 = test system: SNB-19
NCI-H226 = test system: NCI-H226
Hs-578T = test system: Hs-578T
SF-539 = test system: SF-539
COLO 205 = test system: COLO 205
SK-MEL-5 = test system: SK-MEL-5
U-251 = test system: U-251
OVCAR-3 = test system: OVCAR-3
HOP-92 = test system: HOP-92
KM12 = test system: KM12
Malme-3M = test system: Malme-3M
EKVX = test system: EKVX
IGROV-1 = test system: IGROV-1
NCI/ADR-RES = test system: NCI/ADR-RES
OVCAR-4 = test system: OVCAR-4
CAKI-1 = test system: CAKI-1
UACC-257 = test system: UACC-257

Measured: GI50

Clc1ccccc1NN(Cc1ccncc1)c1ccccc1Cl
inactive: BT-549 19.1 µM | LOX IMVI 16.7 µM | UO-31 24.5 µM | SNB-19 17.3 µM | NCI-H226 21 µM | Hs-578T 18.2 µM | SF-539 18.2 µM | COLO 205 14.4 µM | SK-MEL-5 13.9 µM | U-251 13.5 µM | OVCAR-3 13.5 µM | HOP-92 4.6 µM | KM12 18 µM | Malme-3M 17.7 µM | EKVX 14 µM | IGROV-1 14.6 µM | NCI/ADR-RES 13.8 µM | OVCAR-4 11.1 µM

Cn1/c(=N\S(=O)(=O)c2ccccc2)n(S(=O)(=O)c2ccccc2)c2ccccc21
inactive: BT-549 > 100 µM | LOX IMVI > 100 µM | UO-31 34.7 µM | SNB-19 89.3 µM | NCI-H226 50.2 µM | Hs-578T 41.8 µM | COLO 205 32.9 µM | SK-MEL-5 35.7 µM | U-251 34.7 µM | CAKI-1 > 100 µM | OVCAR-3 36.2 µM | HOP-92 > 10 µM | KM12 26.2 µM | Malme-3M 47.6 µM | EKVX 63.5 µM | IGROV-1 > 100 µM | NCI/ADR-RES 38.6 µM | UACC-257 > 100 µM | OVCAR-4 > 100 µM

COc1ccccc1[S+]([O-])Nc1ccccc1 (centres undefined)
inactive: BT-549 17.4 µM | LOX IMVI 71.9 µM | UO-31 33.6 µM | SNB-19 > 100 µM | NCI-H226 > 100 µM | Hs-578T 76 µM | SF-539 25.3 µM | COLO 205 > 100 µM | SK-MEL-5 25.5 µM | U-251 41.6 µM | OVCAR-3 > 100 µM | KM12 12.5 µM | Malme-3M > 100 µM | EKVX > 100 µM | IGROV-1 37.2 µM | NCI/ADR-RES 91.4 µM | UACC-257 50.4 µM | OVCAR-4 > 100 µM

CCOc1ccc(/N=N/c2ccc(-c3ccc(/N=N/c4c(O)ccc5cc(S(=O)(=O)O)cc(S(=O)(=O)O)c45)cc3)cc2)cc1
inactive: BT-549 > 100 µM | UO-31 > 100 µM | SNB-19 > 100 µM | NCI-H226 > 100 µM | Hs-578T > 100 µM | SF-539 > 100 µM | COLO 205 > 100 µM | SK-MEL-5 > 100 µM | U-251 > 100 µM | CAKI-1 > 100 µM | OVCAR-3 > 100 µM | HOP-92 > 100 µM | KM12 > 100 µM | Malme-3M 18.5 µM | EKVX > 100 µM | IGROV-1 > 100 µM | NCI/ADR-RES > 100 µM | UACC-257 > 100 µM | OVCAR-4 > 100 µM

O=C(C[C@@H]1CCCN2CCCC[C@H]12)N1c2ccccc2Sc2ccc(Cl)cc21
inactive: BT-549 14.7 µM | LOX IMVI 13.7 µM | UO-31 12.9 µM | SNB-19 16.1 µM | NCI-H226 27.6 µM | Hs-578T 17.1 µM | SF-539 16.6 µM | COLO 205 11.9 µM | SK-MEL-5 11.7 µM | U-251 12.1 µM | CAKI-1 14.4 µM | OVCAR-3 16.2 µM | KM12 13.3 µM | Malme-3M 16.2 µM | EKVX 19.1 µM | IGROV-1 12.6 µM | NCI/ADR-RES 14.8 µM | UACC-257 11.6 µM

CC1(C)CC(=O)C(=CNC(N)=S)C(=O)C1
inactive: BT-549 > 100 µM | LOX IMVI > 100 µM | UO-31 > 100 µM | SNB-19 > 100 µM | NCI-H226 > 100 µM | Hs-578T > 100 µM | SF-539 > 100 µM | COLO 205 > 100 µM | SK-MEL-5 > 100 µM | U-251 > 100 µM | CAKI-1 > 100 µM | OVCAR-3 > 100 µM | HOP-92 > 100 µM | KM12 > 100 µM | EKVX > 100 µM | IGROV-1 > 100 µM | NCI/ADR-RES > 100 µM | UACC-257 > 100 µM | OVCAR-4 > 100 µM

CCOC(=O)NC(=S)c1ccc(O)c2ccccc12
inactive: BT-549 23 µM | LOX IMVI 28.6 µM | UO-31 45.6 µM | SNB-19 95.5 µM | Hs-578T 21.7 µM | SF-539 53.8 µM | COLO 205 > 100 µM | SK-MEL-5 42.8 µM | U-251 > 100 µM | CAKI-1 44.2 µM | OVCAR-3 49.8 µM | KM12 39 µM | Malme-3M 33.1 µM | EKVX 27.9 µM | IGROV-1 13.9 µM | NCI/ADR-RES 25.8 µM | UACC-257 > 100 µM | OVCAR-4 > 100 µM

O=C(O)c1ccc(Nc2nc3ccccc3nc2C(=O)O)cc1
inactive: BT-549 > 100 µM | UO-31 > 100 µM | SNB-19 > 100 µM | Hs-578T > 100 µM | SF-539 > 100 µM | COLO 205 > 100 µM | SK-MEL-5 > 100 µM | U-251 > 100 µM | CAKI-1 > 100 µM | OVCAR-3 > 100 µM | HOP-92 > 100 µM | KM12 > 100 µM | Malme-3M > 100 µM | EKVX > 100 µM | IGROV-1 > 100 µM | NCI/ADR-RES > 100 µM | UACC-257 > 100 µM | OVCAR-4 > 100 µM

O=[N+]([O-])c1ccc(O)c(/C=N/c2nc(-c3ccccc3)cs2)c1
inactive: BT-549 17.1 µM | LOX IMVI 15.8 µM | UO-31 26.4 µM | SNB-19 29 µM | NCI-H226 24.7 µM | Hs-578T 25.8 µM | COLO 205 19.6 µM | SK-MEL-5 13.2 µM | U-251 32.2 µM | CAKI-1 77.6 µM | OVCAR-3 35.2 µM | HOP-92 22.9 µM | KM12 37.5 µM | Malme-3M 24.8 µM | EKVX 31.3 µM | IGROV-1 24.2 µM | NCI/ADR-RES 29.7 µM | UACC-257 45.9 µM | OVCAR-4 58.3 µM

CC(=O)CCn1c(=S)sc2ccccc21
inactive: BT-549 > 100 µM | LOX IMVI > 100 µM | UO-31 41.3 µM | SNB-19 > 100 µM | NCI-H226 > 100 µM | Hs-578T > 100 µM | SF-539 > 100 µM | COLO 205 > 100 µM | SK-MEL-5 56.8 µM | U-251 > 100 µM | CAKI-1 49.7 µM | OVCAR-3 > 100 µM | HOP-92 > 100 µM | KM12 > 100 µM | EKVX > 100 µM | IGROV-1 98.6 µM | NCI/ADR-RES > 100 µM | UACC-257 > 100 µM | OVCAR-4 > 100 µM

COc1c2ccoc2c(OC)c2oc(=O)ccc12 [ISOPIMPINELLIN]
inactive: BT-549 > 100 µM | LOX IMVI > 100 µM | UO-31 95.7 µM | SNB-19 > 100 µM | NCI-H226 99.1 µM | Hs-578T 62.1 µM | SF-539 > 100 µM | COLO 205 > 100 µM | SK-MEL-5 94.4 µM | U-251 > 100 µM | CAKI-1 50.5 µM | OVCAR-3 > 100 µM | HOP-92 1.99 µM | KM12 > 100 µM | EKVX 70.1 µM | IGROV-1 > 100 µM | NCI/ADR-RES > 100 µM | UACC-257 > 100 µM | OVCAR-4 > 100 µM
